{"source": "paper PMC5193077", "about": "“An Allosteric Potentiator of the Dopamine D1 Receptor Increases Locomotor Activity in Human D1 Knock-In Mice without Causing Stereotypy or Tachyphylaxis” (The Journal of Pharmacology and Experimental Therapeutics, 2017)", "key": {"human D5 receptor": {"target": "T1, human D5 receptor (Homo sapiens, UniProt P21918)", "T1 construct": "host or cells: CHO", "T1 sequence (P21918 whole entry)": "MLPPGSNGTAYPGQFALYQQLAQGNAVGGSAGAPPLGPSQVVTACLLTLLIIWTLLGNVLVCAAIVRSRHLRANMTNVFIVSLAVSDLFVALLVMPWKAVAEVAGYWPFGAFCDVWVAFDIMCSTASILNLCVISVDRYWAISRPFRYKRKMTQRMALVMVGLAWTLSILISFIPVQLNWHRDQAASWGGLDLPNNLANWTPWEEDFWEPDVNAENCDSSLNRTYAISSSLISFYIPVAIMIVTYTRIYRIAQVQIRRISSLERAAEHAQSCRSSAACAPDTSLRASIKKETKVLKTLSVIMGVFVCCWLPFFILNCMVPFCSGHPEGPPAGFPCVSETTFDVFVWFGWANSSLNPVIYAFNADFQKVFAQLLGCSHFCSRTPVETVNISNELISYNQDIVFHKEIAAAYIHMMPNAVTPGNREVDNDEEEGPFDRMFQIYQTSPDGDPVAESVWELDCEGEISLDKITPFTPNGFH", "assay": "cAMP response in hD5 CHO cells", "assay_type": "cell-based", "method": "A Chinese hamster ovary (CHO) cell line expressing the human D5 receptor was purchased from DiscoveRx (Fremont, CA) (product no. 92-1043). The hD5 assay was performed in the same way as the hD1 assay except that the EC20 concentration of dopamine was 2 nM."}, "[1]": {"target": "T2, rhesus monkey D1 receptor (Macaca mulatta, UniProt O77680)", "T2 construct": "expressed in transfected cells; host or cells: HEK293, transient (Fugene HD)", "T2 sequence (O77680 whole entry)": "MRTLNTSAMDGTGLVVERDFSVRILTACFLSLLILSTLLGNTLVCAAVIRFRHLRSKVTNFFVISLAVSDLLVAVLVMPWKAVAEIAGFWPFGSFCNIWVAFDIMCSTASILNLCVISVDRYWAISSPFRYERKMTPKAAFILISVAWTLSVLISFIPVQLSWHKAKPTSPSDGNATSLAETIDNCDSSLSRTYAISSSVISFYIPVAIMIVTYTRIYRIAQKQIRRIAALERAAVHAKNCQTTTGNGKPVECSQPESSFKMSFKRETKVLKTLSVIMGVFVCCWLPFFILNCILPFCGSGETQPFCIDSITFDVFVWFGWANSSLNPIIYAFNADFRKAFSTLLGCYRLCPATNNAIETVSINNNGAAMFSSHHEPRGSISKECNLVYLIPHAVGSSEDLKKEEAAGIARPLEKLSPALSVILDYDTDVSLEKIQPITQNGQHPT", "assay": "cAMP potentiation, transiently expressed rhesus monkey D1 receptor in HEK293 cells", "assay_type": "cell-based", "details": "Rhesus D1, transient"}, "[2]": {"assay": "Free (unbound) brain concentrations of DETQ in hD1 mice", "assay_type": "in vivo, mouse", "method": "Immediately after the LMA measurements described in Fig. 8, the brains were removed, and brain homogenate concentrations were determined by liquid chromatography with tandem mass spectrometry. The unbound fraction in brain was determined by equilibrium dialysis in a mouse brain homogenate mixture after incubation of the compound for 4.5 hours ([Kalvass et al., 2007]).\nThe unbound brain concentrations were calculated from the following equation: […]"}, "β1 receptor": {"target": "β1 receptor (Homo sapiens, UniProt P08588)", "sequence (P08588 whole entry)": "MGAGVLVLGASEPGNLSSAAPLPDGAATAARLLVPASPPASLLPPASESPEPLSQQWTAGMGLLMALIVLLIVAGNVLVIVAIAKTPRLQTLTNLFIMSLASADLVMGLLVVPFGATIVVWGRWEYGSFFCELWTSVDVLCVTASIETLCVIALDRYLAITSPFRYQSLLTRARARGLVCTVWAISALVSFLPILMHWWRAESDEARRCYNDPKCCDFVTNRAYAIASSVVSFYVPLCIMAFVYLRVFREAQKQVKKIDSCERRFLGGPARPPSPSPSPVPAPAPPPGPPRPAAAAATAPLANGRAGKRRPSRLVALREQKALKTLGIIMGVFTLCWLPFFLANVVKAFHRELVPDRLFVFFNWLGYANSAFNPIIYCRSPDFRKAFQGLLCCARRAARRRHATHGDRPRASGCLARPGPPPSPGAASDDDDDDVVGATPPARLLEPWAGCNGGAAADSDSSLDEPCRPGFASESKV", "assay": "β1 cAMP assay (DiscoveRx)", "assay_type": "cell-based", "details": "potentiator, agonist and antagonist mode, up to 10 µM", "method": "The D2, β1, β2, β3, and 5HT6 cAMP assays were performed at DiscoveRx using the protocols described on their website (www.discoverx.com)."}, "wild-type C57Bl/6 mice": {"test_system": "wild-type C57Bl/6 mice", "assay": "Locomotor activity (LMA) in wild-type C57Bl/6 mice", "assay_type": "in vivo, mouse"}, "human D1 receptor": {"target": "human D1 receptor (Homo sapiens, UniProt P21728)", "sequence (P21728 whole entry)": "as the sequence (O77680 whole entry) above, with I311N counted along it", "assay": "cAMP potentiation, transiently expressed human D1 receptor in HEK293 cells", "assay_type": "cell-based", "details": "Human D1, transient"}}}
{"compound": "C[C@H]1c2cccc(C(C)(C)O)c2C[C@H](CO)N1C(=O)Cc1c(Cl)cccc1Cl", "note": "[DETQ, 2-(2,6-dichlorophenyl)-1-((1S,3R)-3-(hydroxymethyl)-5-(2-hydroxypropan-2-yl)-1-methyl-3,4-dihydroisoquinolin-2(1H)-yl)ethan-1-one]", "values": [{"measurement": "Selectivity for the D1 receptor over D5", "setting": "human D5 receptor", "value": "> 1000", "unit": "fold"}, {"measurement": "Activity at human D5 receptor", "setting": "human D5 receptor; potentiator mode, up to 25 µM", "value": "inactive"}, {"measurement": "Top (%)", "setting": "[1]", "value": 80.0, "unit": "%"}, {"measurement": "EC50", "setting": "[1]; 0.7 nM dopamine", "value": 12, "unit": "nM"}, {"measurement": "Free brain levels after oral dosing", "setting": "[2]; 240 mg/kg oral, immediately after LMA testing", "value": "~600", "unit": "nM"}, {"measurement": "concentration at 6 h", "setting": "[2]; hD1 knock-in, mouse, brain (unbound), 240 mg/kg oral twice daily, at 6 hours, n = 3, read-out: Unbound brain levels", "value": "19.8 ± 1.5", "unit": "nM"}, {"measurement": "concentration at 12 h", "setting": "[2]; hD1 knock-in, mouse, brain (unbound), 240 mg/kg oral twice daily, at 12 hours, n = 3, read-out: Unbound brain levels", "value": "30.8 ± 9.4", "unit": "nM"}, {"measurement": "Activity at β1 receptor", "setting": "β1 receptor", "value": "inactive"}, {"measurement": "LMA activity in wild-type mice", "setting": "wild-type C57Bl/6 mice; 3–20 mg/kg orally", "value": "inactive in wild-type mice"}, {"measurement": "Increase in LMA", "setting": "wild-type C57Bl/6 mice; wild-type C57Bl/6 mice, 30 mg/kg oral, P = 0.07, not significant", "value": 32, "unit": "%"}, {"measurement": "Top (%)", "setting": "human D1 receptor", "value": 75.6, "unit": "%"}, {"measurement": "EC50", "setting": "human D1 receptor; 0.7 nM dopamine", "value": 11.4, "unit": "nM"}]}
